{
  "source": "paper PMC7504215",
  "about": "“Copper(II) Complexes with Mixed Heterocycle Ligands as Promising Antibacterial and Antitumor Species” (Molecules, 2020)",
  "test_system": "S. aureus 25923",
  "assay": "MBEC assay, micro-titer method (biofilm)",
  "type": "cell-based, Staphylococcus aureus",
  "method": "The antibacterial assays were performed on Gram-negative (Escherichia coli ATCC 25922, E. coli 5, Pseudomonas aeruginosa ATCC 27853, P. aeruginosa ATCC 9027) and Gram-positive (Staphylococcus aureus ATCC 25923, S. aureus ATCC 6538, MRSA (Meticillin-resistant S. aureus) 388, ATCC, American Type Culture Collection) bacterial strains. Microbial suspensions (1.5 × 10^8 CFU/mL; colony forming units (CFU)) corresponding to 0.5 McFarland density obtained from 15 to 18-h bacterial cultures developed on solid media were used. The antimicrobial activity was tested on Mueller–Hinton agar medium.\nThe assessment of the complexes’ influence on the microbial ability to colonize an inert substratum with the establishment of the minimal biofilm eradication concentration (MBEC) was performed by the micro-titer method, following previously described protocols. The absorbance at 490 nm was measured with an Apollo LB 911ELISA (Berthold Technologies GmbH & Co. KG, Waltham, MA, USA) reader. All experiments were performed in triplicates.",
  "data": [
    {"smiles": "Cc1cc(-c2ccccc2)nc2ncnn12.[Cu+2].[O-][Cl+3]([O-])([O-])[O-].[O-][Cl+3]([O-])([O-])[O-].c1cnc2c(c1)ccc1cccnc12.c1cnc2c(c1)ccc1cccnc12", "note": "[(2), [Cu(phen)2(pmtp)](ClO4)2]", "values": [
      {"measurement": "MBEC value", "result": 0.01, "unit": "mM"}
    ]}
  ]
}
